Literature values as cited in patent US20040120995A1, “Transdermal delivery of pergolide” (priority 2003, published 2004).
Structures can show the parent of a compound that is named as a salt. Where two headings read alike, the source gives them in different places.

Details: for Pergolide Blood Serum Level: human subjects

CCCN1C[C@H](CSC)C[C@@H]2c3cccc4[nH]cc(c34)C[C@H]21 [pergolide mesylate]
maximum blood serum level (2-3 hours following a 2.5 mg oral dose): about 500 picograms/ml | blood serum level (8 hours following a 0.5 mg oral dose): about 60 picograms/ml | Pergolide Blood Serum Level (oral dose 0.25 milligrams): 47.75 picograms/ml | Pergolide Blood Serum Level (oral dose 0.50 milligrams): 100.08 picograms/ml | Pergolide Blood Serum Level (oral dose 1.00 milligrams): 199.33 picograms/ml | Pergolide Blood Serum Level (oral dose 2.00 milligrams): 398.66 picograms/ml | Pergolide Blood Serum Level (oral dose 3.00 milligrams): 597.99 picograms/ml | peak serum concentration (oral dosing 3 mg/24 hours, divided into three doses): approximately 200 pg/ml
